Experimental data: patent US20160282364A1, “ASSAY FOR INSULIN-DEGRADING ENZYME (IDE) INHIBITORS” (PRESIDENT AND FELLOWS OF HARVARD COLLEGE, priority 2013, published 2016)

Assays:
[1] = tested on: lean and DIO C57BL/6J mice; assay: i.p. injected glucose tolerance test (IPGTT); type: in vivo, mouse
Experimental: Wild-type lean C57BL/6J and diet-induced obese (DIO) C57BL/6J age-matched male mice were purchased from Jackson Laboratories, and used at ages 14-16, and 24-26 weeks respectively (>20 weeks of high-fat diet for the DIO mice). GCGR^/ mice were bred from heterozygous mice and used between 11 and 17 weeks. […] Blood glucose was measured from tail nicks using AccuCheck (Aviva) meters.
In vivo studies, general information. Wild-type C57BL/6J and diet-induced obese (DIO) C57BL/6J age-matched male adult mice were purchased from Jackson Laboratories. The age range was 13 to 15 weeks for lean mice, and 24 to 26 weeks for DIO mice. All animals were individually housed on a 14-h light, 10-h dark schedule at the Biology Research Infrastructure (BRI), Harvard University. Cage enrichment included cotton bedding and a red plastic hut. Water and food were available ad libitum, consisting respectively of normal chow (Prolab® RHM 3000) or high-fat diet (60 kcal % fat, D12492, Research Diets Inc.). All animal care and experimental procedures were in accordance with the standing committee on the Use of Animals in Research and Teaching at Harvard University, the guidelines and rules established by the Faculty of Arts and Sciences' Institutional Animal Care and Use Committee (IACUC), and the National Institutes of Health Guidelines for the Humane Treatment of Laboratory Animals. Glucagon-receptor knock-out (GCGR^−/−) mice were housed with a 14-h light and 10-h dark schedule and treated in accordance with the guidelines and rules approved by the IACUC at Albert Einstein College of Medicine, NY. Power analysis to determine animal cohort numbers was based on preliminary results and literature precedent, usually requiring between 5 and 8 animals per group. Animals were only excluded from the cohorts in cases of chronic weakness, which occurs among GCGR −/− mice, or when we identified occasional DIO mice with an outlier diabetic phenotype (>200 mg/dL fasting blood glucose). Age- and weight-matched mice were randomized to each treatment group. Double-blinding was not feasible.
Glucose tolerance tests GTT and blood glucose measurements. Prior to a glucose challenge, the animals were fasted for 14 h (8 pm to 10 am, during the dark cycle) while individually housed in a clean cage with inedible wood-chip as a floor substrate, cotton bedding and a red plastic hut. Inhibitor, vehicle or control compounds were administered by a single intraperitoneal (i.p.) injection 30 min prior to the glucose challenge. Dextrose was formulated in sterile saline (3 g in 10 mL total), and the dose was adjusted by fasted body weight. For oGTT, 3.0 g/kg dextrose was administered by gavage at a dose of 10 mL/kg, and for ipGTT, 1.5 g/kg dextrose injected at a dose of 5 mL/kg. Blood glucose was measured using AccuCheck® meters (Aviva) from blood droplets obtained from a small nick at the tip of the tail, at timepoints −45, 0, 15, 30, 45, 60, 90 and 120 min with reference to the time of glucose injection. The area of the blood glucose response profile curve corresponding to each animal was calculated by the trapezoid method^17, using as reference each individual baseline blood glucose measurement prior to glucose administration (t=0). […] Values are reported as mean±S.E.M. Statistics were performed using a two-tail Student's t-test, and significance levels shown in the figures are *p<0.05 versus vehicle control group or **p<0.01 versus vehicle control group.

Wild-type mice = assay: Gastric emptying measurements; type: in vivo, mouse; details: 30 minutes post-gavage, vs vehicle and bisepi-6bK controls
Experimental: Trunk blood was obtained for plasma hormone measurements using the Multiplexed Mouse Metabolic Hormone panel (Milliplex, EMD Millipore) on a Luminex FlexMap 3D instrument. Gastric emptying was measured by dissection of stomachs 30 min after an oral glucose bolus (3.0 g/kg, 10 mL/kg) in sterile saline containing 0.1 mg/mL phenol red.
Gastric emptying measurements. Mice were fasted 14 h (8 pm to 10 am). Inhibitor or vehicle alone was injected i.p. as previously described, followed 30 min later by an oral glucose bolus (3.0 g/kg, 10 mL/kg) in sterile saline containing 0.1 mg/mL phenol red. At 30 min, the stomach was promptly dissected after CO2-euthanasia and stored on ice. The stomach contents were extracted into 2.5 mL EtOH (95%) by homogenization for 1 min using a probe sonicator. Tissue debris were decanted by centrifugation at 4000 g, followed by clearing at 15000 g for 15 min. The supernatant (1 mL) was mixed with 0.5 mL of aqueous NaOH (20 mM), and incubated at −20° C. for 1 h. The solution was centrifuged at 15,000 g for 15 min, and absorbance was determined at 565 nm. The spectrophotometer was blanked with the stomach contents of a mouse treated with colorless glucose solution. The absorbance was adjusted to the amount of glucose solution dosed to each mouse. Values are reported as mean±S.E.M relative to the original phenol red glucose solution. […]

C57BL/6J lean mice = assay: CGRP-induced blood glucose excursions; type: in vivo, mouse; details: 80 mg/kg 30 min before CGRP
Experimental: Supraphysiological doses of CGRP induce blood glucose fluctuations via amylin receptors. […] Blood glucose was monitored at various points throughout the experiment, beginning at 45 minutes before and ending at 110 minutes after CGRP administration. The data was plotted (left panel) and the area under the curve for the 6bK-administered mice and the control mice was integrated.

IDE (R&D) = IDE (R&D) (Homo sapiens, UniProt P14735); assay: Homogeneous time-resolved fluorescence (HTRF) insulin degradation assay; type: biochemical; design: recombinant human IDE42-1019 (R&D Systems); purchased R&D
Sequence of IDE (R&D) (P14735 42-1019): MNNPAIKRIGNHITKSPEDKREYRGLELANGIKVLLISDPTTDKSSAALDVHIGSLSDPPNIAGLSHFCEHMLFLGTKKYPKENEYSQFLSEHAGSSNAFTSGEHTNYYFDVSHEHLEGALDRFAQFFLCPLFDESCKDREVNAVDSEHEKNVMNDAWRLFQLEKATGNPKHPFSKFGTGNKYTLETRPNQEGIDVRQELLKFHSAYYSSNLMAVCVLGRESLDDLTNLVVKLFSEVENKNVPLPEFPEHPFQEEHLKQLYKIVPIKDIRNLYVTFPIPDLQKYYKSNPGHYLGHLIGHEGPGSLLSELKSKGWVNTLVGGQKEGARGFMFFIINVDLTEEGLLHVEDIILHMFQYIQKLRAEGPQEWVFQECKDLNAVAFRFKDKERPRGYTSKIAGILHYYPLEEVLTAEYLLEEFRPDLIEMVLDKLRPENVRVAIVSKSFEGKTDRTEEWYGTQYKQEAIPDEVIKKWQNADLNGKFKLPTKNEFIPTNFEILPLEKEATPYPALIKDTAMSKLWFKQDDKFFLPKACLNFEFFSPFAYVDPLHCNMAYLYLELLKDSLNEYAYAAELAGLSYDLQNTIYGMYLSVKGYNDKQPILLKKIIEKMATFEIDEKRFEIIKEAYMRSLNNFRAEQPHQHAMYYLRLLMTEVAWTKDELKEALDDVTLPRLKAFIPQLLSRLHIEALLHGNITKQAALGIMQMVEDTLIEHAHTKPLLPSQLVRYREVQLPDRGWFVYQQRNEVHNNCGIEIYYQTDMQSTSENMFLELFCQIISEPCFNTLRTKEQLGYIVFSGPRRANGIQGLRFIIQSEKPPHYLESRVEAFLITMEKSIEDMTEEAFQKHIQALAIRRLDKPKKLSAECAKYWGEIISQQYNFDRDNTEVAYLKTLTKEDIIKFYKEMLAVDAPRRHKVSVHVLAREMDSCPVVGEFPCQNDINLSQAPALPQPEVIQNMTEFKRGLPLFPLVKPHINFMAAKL
Experimental: All data points and error bars represent mean±SEM. Significance tests were performed using two-tail Student's t-test, and significance levels shown in the figures are p<0.05 (*) or p<0.01 (**) versus the vehicle-only control group. The in vitro selection of the DNA-templated macrocycle libraryl^16,17 used 20 μg His6-tagged mouse IDE immobilized on cobalt magnetic beads (Dynabeads, Invitrogen). IDE proteolytic activity was assayed with fluorogenic peptide Mca-[…](Dnp)-OH (R&D). IDE inhibition was confirmed using an anti-insulin antibody time-resolved FRET assay (Cysbio), and using an LCMS assay for CGRP cleavage fragments CGRP1-17 and CGRP18-37 in plasma^18. […] IDE degradation assays for insulin and calcitonin-gene related peptide (CGRP). […] Fluorescence was measured using a Tecan Safire 2 plate reader (excitation=320 nm, emission=665 and 620 nm, lag time=60 μs) according the assay manufacturer's recommendations. Degradation of CGRP by endogenous IDE in mouse plasma was analyzed by LC-MS for the formation of CGRP1-17 and CGRP18-37 as previously reported^6.

| SMILES | IPGTT response at low dose ([1]; DIO mice, 40 mg/kg) | glucose response profile in IPGTT ([1]; DIO mice, 60 mg/kg, lower over initial 30 min, hyperglycemic rebound from 1 h) | IPGTT response at high dose ([1]; DIO mice, 90 mg/kg) | effective dose ([1]; i.p., 80 mg/kg lean (25 g), 60 mg/kg DIO (35-45 g)) | glucose tolerance after i.p. glucose injection ([1]; lean and DIO mice, glucose 1.5 g/kg i.p., vs vehicle) | slower gastric emptying of a labeled glucose solution (Wild-type mice) | CGRP-induced blood glucose excursions (C57BL/6J lean mice) | inhibition of IDE proteolytic activity, insulin immunoassay (IDE (R&D)) |
| --- | --- | --- | --- | --- | --- | --- | --- | --- |
| NCCCC[C@@H]1NC(=O)/C=C/C(=O)N[C@H](C(N)=O)CCCCNC(=O)[C@@H](Cc2ccc(C(=O)c3ccccc3)cc2)NC(=O)[C@H](CC2CCCCC2)NC1=O [Compound 6bK] | too low to achieve a consistent effect | biphasic response | respond similarly to 60 mg/kg | ~2 mg/mouse | impaired glucose tolerance | 2 fold | augments | – |
| NC(=O)CCC1NC(=O)C=CC(=O)NC(C(N)=O)CCCCNC(=O)C(Cc2ccc(C(=O)c3ccccc3)cc2)NC(=O)C(CC2CCCCC2)NC1=O (centres unmarked) [Compound 6b] | – | – | – | – | – | – | – | confirmed |
